Values joined by “and” are separate entries in the source; they are usually repeats but may differ in a detail not shown here. Identical values can stand only once. Like-named read-outs stand apart in the source and are kept apart here.
Details: 12-membered ring

With `COC(=O)Nc1ccc2c(c1)NC(=O)C(C)C=CC[C@H](NC(=O)OC(C)(C)C)c1cc-2cc(=O)[nH]1` (stereo partly shown) the ring closure, yield after HPLC (from C=CC[C@H](NC(=O)OC(C)(C)C)c1cc(-c2ccc(NC(=O)OC)cc2NC(=O)C(C)C=C)cc(=O)[nH]1, rcm bond, Grubbs II (0.4 eq), microwave, DCE, 18.0 mM, 120.0 °C, 0.5 h) was 19% and 35%.

Work on `COC(=O)Nc1ccc2c(c1)NC(=O)CCOC[C@H](NC(=O)OC(C)(C)C)c1nc-2cn1COCC[Si](C)(C)C` yielded a ring closure, yield after HPLC (from COC(=O)Nc1ccc(-c2cn(COCC[Si](C)(C)C)c([C@H](COCCC(=O)O)NC(=O)OC(C)(C)C)n2)c(N)c1, amide bond, BOP/DMAP/DIEA, DMF, 1.0 mM, 25.0 °C, 16.0 h) of 75%.

With `COC(=O)Nc1ccc2c(c1)NC(=O)COCC[C@H](NC(=O)OCc1ccccc1)c1cc-2ccn1` the ring closure, yield after HPLC (from COC(=O)Nc1ccc(-c2ccnc([C@H](CCOCC(=O)O)NC(=O)OCc3ccccc3)c2)c(N)c1, amide bond, BOP/DMAP/DIEA, DCM/DMF, 2.8 mM, 25.0 °C, 6.0 h) was 27%.

`COC(=O)Nc1ccc2c(c1)NC(=O)[C@H](C)CCC[C@H](NC(=O)OC(C)(C)C)c1nc-2cn1COCC[Si](C)(C)C` showed a ring closure, yield after HPLC (from COC(=O)Nc1ccc(-c2cn(COCC[Si](C)(C)C)c([C@H](CCCC(C)C(=O)O)NC(=O)OC(C)(C)C)n2)c(N)c1, amide bond, BOP/DMAP/DIEA, DCM/DMF, 3.4 mM, 50.0 °C, 96.0 h) of 22%.

From patent US10208068B2, “Macrocycles as factor XIa inhibitors” (BRISTOL-MYERS SQUIBB COMPANY, priority 2011, dated 2019)
